Experimental data as given in patent publication US20230192748A1 (DoubleRainbow Biosciences Inc., priority 2020, published 2023).
Converted amounts (≈) assume the structure as drawn. Each block holds one molecule with its values, some of them ahead of it.

Experiments:
[1] = cited from earlier work
[2] = aqueous solutions, 80° C., pH 5; cited from earlier work
[3] = test system: blood plasma proteins (primarily albumin); settings: cited from earlier work
[4] = in vivo; cited from earlier work
physchem = settings: distilled water, 25 °C, thermodynamic from solid
Protocol: (§1) Afterwards, each sample was centrifuged at 12,000×g for 20 min. The supernatant of each sample was then filtered through a 0.45-μm membrane filter and the concentration of the compound in the supernatant, which is defined as the water-soluble component, was measured by its absorbance at 254 nm using HPLC, and its absolute solubility was calculated in reference to the concentration-absorbance standard curve.

[5] = distilled water, 25° C.
Protocol: as §1

[6] = test system: etoposide-resistant cell line; settings: cited from earlier work
[7] = etoposide phosphate plus cisplatin; cited from earlier work

solubility at 12 h (physchem): 56 µg/mL (≈ 95.1 µM)
SMILES: COc1cc([C@@H]2c3cc4c(cc3[C@@H](O[C@@H]3O[C@@H]5CO[C@@H](C)O[C@H]5[C@H](O)[C@H]3O)[C@H]3COC(=O)[C@H]23)OCO4)cc(OC)c1O [etoposide, Etoposide]
solubility in aqueous solutions ([1]; 37° C.): 150 to 170 µg/mL
half life [2]: 0.643 h
bound to blood plasma proteins [3]: 97%
half-life [4]: 4 to 11 h

water solubility relative to etoposide [5]: 200 times
SMILES: COc1cc(C2c3cc4c(cc3C(OC3OC5COC(C)OC5C(OC5OC(CO)C(O)C(O)C5O)C3O)C3COC(=O)C23)OCO4)cc(OC)c1O (stereo not drawn)

SMILES: COc1cc([C@@H]2c3cc4c(cc3[C@@H](O[C@@H]3O[C@@H]5CO[C@@H](C)O[C@H]5[C@H](O)[C@H]3O)[C@H]3COC(=O)[C@H]23)OCO4)cc(OC)c1OC(=O)OCC1COC(C)(C)O1 (stereo partly drawn) [CAP7.1]
concentrations cytotoxic to an etoposide-resistant cell line [6]: nanomolar concentrations

SMILES: COc1cc([C@@H]2c3cc4c(cc3[C@@H](O[C@@H]3O[C@@H]5CO[C@@H](C)O[C@H]5[C@H](O)[C@H]3O)[C@H]3COC(=O)[C@H]23)OCO4)cc(OC)c1OP(=O)(O)O [Etoposide phosphate]
aqueous solubility [1]: 20000 µg/mL
difference in PK/PD parameters or overall response rate versus etoposide plus cisplatin [7]: no statistically significant difference
